Three compounds from PMC12830042, “Investigating the impact of charge and hydrophilicity on peptide-mucin interactions using a simple mucin model” (AAPS open, 2025) can be followed below.

This data set has as its system Mucin type II from porcine stomach. Nature of the data set: Peptide diffusion across a mono-component mucin layer (Transwell donor to acceptor chamber). It is filed as in vitro ADME. Particulars: for time window in which acceptor concentration plateaued / leveled off: donor 266 and 133 μg/mL (both concentrations); for time window in which acceptor concentration plateaued / leveled off / time window in which acceptor concentration plateaued: mucin layer, pH 6.8, HPLC; for maximum concentration in the acceptor chamber: ~2.5% (w/v) Type II porcine mucin on Transwell, phosphate buffer pH 6.8, 37°C, over 6 h, HPLC-UV 214 nm. On the procedure:
Around 2.5% (w/v) of Type II porcine mucin was added to the donor side of the Transwell™ plate along with 300–1000 μL of 6.8 pH phosphate buffer. The mixture was shaken at 37°C for 45–60 min until the proper suspension was attained. Then, 1–2 mL of phosphate buffer at 6.8 pH was added to the acceptor side of the Transwell™ plate.
Fig. 1 A schematic diagram of the diffusion chamber to study peptide diffusion through a mucin layer. The well consists of donor and acceptor chambers separated by a mucin layer. The peptide was added to the donor chamber, and the diffusion of the peptide was monitored by its appearance in the acceptor chamber. The peptide in the acceptor chamber was sampled as a function of time, and the peptide concentration was determined by fluorescence spectroscopy, HPLC, or mass spectrometry
Initially, FITC-ADT10 and FITC-HAV10 peptides were used to test the mucin model in phosphate buffer at pH 6.8. Different concentrations of peptide in phosphate buffer at pH 6.8 were added to the donor chamber; the acceptor chamber contained a phosphate buffer at pH 6.8 in the Transwell™. At predetermined time points, 100 μL aliquots were taken from the acceptor chamber, transferred into 96-well plates, and replaced with pre-heated phosphate buffer pH 6.8. The aliquots were then analyzed by fluorescence spectroscopy plate reader at […].
The diffusion of each unlabeled peptide from the donor-to-acceptor chambers was analyzed by Agilent® 1200 HPLC equipped with a Zorbax C18 column with 3.5 μm particle size and dimensions of 4.6 × 50 mm. The column temperature was held at 30°C during the chromatographic run. Mobile phase A was 0.1% trifluoroacetic acid in Milli-Q water, and mobile phase B was 0.085% trifluoroacetic acid in acetonitrile. The detector was a UV–Vis detector monitoring at 214 nm wavelengths. Calibration curves were prepared in phosphate buffer pH 6.8 in concentrations ranging from 1 to 266 μg/mL.
Student t-tests were used to analyze the difference between the percentage diffused of FITC-HAV10 and FITC-ADT10, octreotide and octreotide A5, and lanreotide and lanreotide A5. The difference in diffusion percentages of ADT peptides was analyzed using ANOVA with Student − Newman − Keul post hoc comparison of the means and Dunnett’s Test comparing DTPPD, DTPPT, and DTPPVK with ADTC5. Statistical significance was set at p < 0.05 unless otherwise stated.

For `CC(C)[C@@H]1NC(=O)[C@H](CCCCN)NC(=O)[C@@H](Cc2c[nH]c3ccccc23)NC(=O)[C@H](Cc2ccc(O)cc2)NC(=O)[C@@H](NC(=O)[C@H](N)Cc2ccc3ccccc3c2)CSSC[C@@H](C(=O)N[C@H](C(N)=O)[C@@H](C)O)NC1=O` [Lanreotide], the “time window in which acceptor concentration plateaued / leveled off” value lay within 4 to 6 h.
In the case of `C[C@@H](O)[C@@H]1NC(=O)[C@H](CCCCN)NC(=O)[C@@H](Cc2c[nH]c3ccccc23)NC(=O)[C@H](Cc2ccccc2)NC(=O)[C@@H](NC(=O)[C@H](N)Cc2ccccc2)CSSC[C@@H](C(=O)N[C@H](CO)[C@@H](C)O)NC1=O` [Octreotide], the “time window in which acceptor concentration plateaued” value (donor 133 μg/mL) lay within 4 to 6 h and the “time window in which acceptor concentration plateaued” value (donor 266 μg/mL) lay in the range of 2 to 6 h. The “maximum concentration in the acceptor chamber” value (donor 133 μg/mL) is on record as 0.00593 mg/mL and the “maximum concentration in the acceptor chamber” value (donor 266 μg/mL) was determined as 0.0116 mg/mL.
Turning to “Cyclo(1,7)Ac-CDTPPVC-NH2 (disulfide) [ADTC5, cyclic ADT cadherin peptide that modulates intercellular junctions]”, the “time window in which acceptor concentration plateaued / leveled off” value was 2 to 6 h.
